{
  "source": "patent US6319702A",
  "about": "“Nucleic acids encoding mutant human carboxypeptidase A enzymes” (Glaxo Wellcome, Inc., priority 1993, dated 2001)",
  "test": "Stability and biodistribution of prodrugs in vivo (HPLC of plasma and tissues)",
  "design": "species or system mice (CD-1 nude; BALB/C where indicated)",
  "conditions": "50 mg/kg i.p. or i.v., CD-1 nude mice",
  "key": {"[1]": {"conditions": "LARGE INTESTINE, 30 min, 50 mg/kg"}, "[2]": {"conditions": "LIVER, 120 min, listed as 552W92, 50 mg/kg"}, "[3]": {"conditions": "mouse, kidney, 50 mg/kg, KIDNEY, 30 min, read-out: stability: percentage of material observed as intact prodrug, kidney"}, "[4]": {"conditions": "mouse, kidney, 50 mg/kg, KIDNEY, 120 min, read-out: stability: percentage of material observed as intact prodrug, kidney"}, "[5]": {"conditions": "mouse, large intestine, 50 mg/kg, LARGE INTESTINE, 30 min, read-out: stability: percentage of material observed as intact prodrug, large intestine"}, "[6]": {"conditions": "mouse, large intestine, 50 mg/kg, LARGE INTESTINE, 120 min, read-out: stability: percentage of material observed as intact prodrug, large intestine"}, "[7]": {"conditions": "mouse, liver, 50 mg/kg, LIVER, 30 min, read-out: stability: percentage of material observed as intact prodrug, liver (converted)"}, "[8]": {"conditions": "mouse, liver, 50 mg/kg, LIVER, 120 min, read-out: stability: percentage of material observed as intact prodrug, liver"}, "[9]": {"conditions": "mouse, plasma, 50 mg/kg, PLASMA, 30 min, read-out: stability: percentage of material observed as intact prodrug, plasma"}, "[10]": {"conditions": "mouse, plasma, 50 mg/kg, PLASMA, 120 min, read-out: concentration of prodrug in plasma"}, "[11]": {"conditions": "mouse, small intestine, 50 mg/kg, SMALL INTESTINE, 30 min, read-out: stability: percentage of material observed as intact prodrug, small intestine"}, "[12]": {"conditions": "mouse, small intestine, 50 mg/kg, SMALL INTESTINE, 120 min, read-out: stability: percentage of material observed as intact prodrug, small intestine"}, "[13]": {"conditions": "mouse, spleen, 50 mg/kg, SPLEEN, 30 min, read-out: stability: percentage of material observed as intact prodrug, spleen"}, "[14]": {"conditions": "mouse, spleen, 50 mg/kg, SPLEEN, 120 min, read-out: stability: percentage of material observed as intact prodrug, spleen"}},
  "note": "Several values for one entry are separate records, joined by “and”; a condition that tells them apart may be missing. Equal values may be shown once. Read-outs that look alike come from different tables or passages of the source.",
  "data": [
    {"smiles": "Cc1nc2ccc3ccc(CNc4ccc(C(=O)N[C@@H](CCC(=O)O)C(=O)N[C@@H](Cc5cccc6ccccc56)C(=O)O)c(F)c4)cc3c2c(=O)[nH]1", "note": "[Prodrug 3, N-(N-(2-fluoro-4-(((1,2-dihydro-3-methyl-1-oxobenzo(F)quinazolin-9-yl)methyl)amino)benzoyl)-L-glutam-1-yl)-3-(1-naphthyl)-L-alanine]", "values": [
      {"measurement": "concentration of prodrug in kidney", "setting": "KIDNEY, 30 min, 50 mg/kg", "result": "41.7 nmol/g and 29.2 nmol/g"},
      {"measurement": "concentration of prodrug in large intestine", "setting": "[1]", "result": "23.4 nmol/g and 14.9 nmol/g"},
      {"measurement": "stability: percentage of material observed as intact prodrug, large intestine", "setting": "[1]", "result": 94, "unit": "%"},
      {"measurement": "concentration of prodrug in large intestine", "setting": "LARGE INTESTINE, 120 min, listed as 552W92, 50 mg/kg", "result": "1.7 nmol/g and 1.1 nmol/g"},
      {"measurement": "concentration of prodrug in liver", "setting": "LIVER, 30 min, 50 mg/kg", "result": "128.8 nmol/g and 135.3 nmol/g"},
      {"measurement": "concentration of prodrug in liver", "setting": "[2]", "result": "267.9 nmol/g and 371.2 nmol/g"},
      {"measurement": "stability: percentage of material observed as intact prodrug, liver", "setting": "[2]", "result": 90, "unit": "%"},
      {"measurement": "stability: percentage of material observed as intact prodrug, plasma", "setting": "PLASMA, 120 min, listed as 552W92, 50 mg/kg", "result": 48, "unit": "%"},
      {"measurement": "concentration", "setting": "PLASMA, 120 min, listed as 552W92, 50 mg/kg, 120 min, read-out: concentration of prodrug in plasma", "result": 2800, "unit": "nM"},
      {"measurement": "concentration of prodrug in small intestine", "setting": "SMALL INTESTINE, 30 min", "result": 27.7, "unit": "nmol/g"},
      {"measurement": "concentration of prodrug in small intestine", "setting": "SMALL INTESTINE, 120 min", "result": 1.8, "unit": "nmol/g"},
      {"measurement": "stability: percentage of material observed as intact prodrug, spleen", "setting": "SPLEEN, 30 min, 50 mg/kg", "result": 100, "unit": "%"},
      {"measurement": "stability: percentage of material observed as intact prodrug, spleen", "setting": "SPLEEN, 120 min, listed as 552W92, 50 mg/kg", "result": 100, "unit": "%"},
      {"measurement": "remaining at 0.5 h", "setting": "[3]", "result": 82, "unit": "%"},
      {"measurement": "remaining at 2 h", "setting": "[4]", "result": 74, "unit": "%"},
      {"measurement": "remaining at 0.5 h", "setting": "[5]", "result": 87, "unit": "%"},
      {"measurement": "remaining at 2 h", "setting": "[6]", "result": 89, "unit": "%"},
      {"measurement": "remaining at 0.5 h", "setting": "[7]", "result": 79, "unit": "%"},
      {"measurement": "remaining at 2 h", "setting": "[8]", "result": 74, "unit": "%"},
      {"measurement": "remaining at 0.5 h", "setting": "[9]", "result": 93, "unit": "%"},
      {"measurement": "concentration at 2 h", "setting": "[10]", "result": 5.1, "unit": "µM"},
      {"measurement": "remaining at 0.5 h", "setting": "[11]", "result": 10, "unit": "%"},
      {"measurement": "remaining at 2 h", "setting": "[12]", "result": 1, "unit": "%"},
      {"measurement": "remaining at 0.5 h", "setting": "[13]", "result": 95, "unit": "%"},
      {"measurement": "remaining at 2 h", "setting": "[14]", "result": 89, "unit": "%"}
    ]},
    {"smiles": "Cc1nc2ccc3ccc(CNc4ccc(C(=O)N[C@@H](CCC(=O)O)C(=O)N[C@@H](Cc5ccccc5I)C(=O)O)c(F)c4)cc3c2c(=O)[nH]1", "note": "[Prodrug 5]", "values": [
      {"measurement": "concentration of prodrug in cecum", "setting": "CECUM, 30 min", "result": 4.7, "unit": "nmol/g"},
      {"measurement": "concentration of prodrug in cecum", "setting": "CECUM, 120 min", "result": 2.9, "unit": "nmol/g"},
      {"measurement": "concentration of prodrug in kidney", "setting": "KIDNEY, 30 min", "result": 42.5, "unit": "nmol/g"},
      {"measurement": "concentration of prodrug in kidney", "setting": "KIDNEY, 120 min", "result": 3.0, "unit": "nmol/g"},
      {"measurement": "concentration of prodrug in large intestine", "setting": "LARGE INTESTINE, 30 min", "result": 28.4, "unit": "nmol/g"},
      {"measurement": "concentration of prodrug in large intestine", "setting": "LARGE INTESTINE, 120 min", "result": 1.6, "unit": "nmol/g"},
      {"measurement": "concentration of prodrug in liver", "setting": "LIVER, 30 min", "result": 118.2, "unit": "nmol/g"},
      {"measurement": "concentration of prodrug in liver", "setting": "LIVER, 120 min", "result": 7.5, "unit": "nmol/g"},
      {"measurement": "concentration of prodrug in small intestine", "setting": "SMALL INTESTINE, 30 min", "result": 32.1, "unit": "nmol/g"},
      {"measurement": "concentration of prodrug in small intestine", "setting": "SMALL INTESTINE, 120 min", "result": 1.6, "unit": "nmol/g"},
      {"measurement": "concentration of prodrug in spleen", "setting": "SPLEEN, 30 min", "result": 34.3, "unit": "nmol/g"},
      {"measurement": "concentration of prodrug in spleen", "setting": "SPLEEN, 120 min", "result": 3.2, "unit": "nmol/g"},
      {"measurement": "concentration of prodrug in tumor", "setting": "TUMOR, 30 min", "result": 4.7, "unit": "nmol/g"},
      {"measurement": "concentration of prodrug in tumor", "setting": "TUMOR, 120 min", "result": 2.9, "unit": "nmol/g"},
      {"measurement": "remaining at 0.5 h", "setting": "mouse, cecum, 50 mg/kg, CECUM, 30 min, read-out: stability: percentage of material observed as intact prodrug, cecum", "result": 95, "unit": "%"},
      {"measurement": "remaining at 2 h", "setting": "mouse, cecum, 50 mg/kg, CECUM, 120 min, read-out: stability: percentage of material observed as intact prodrug, cecum", "result": 88, "unit": "%"},
      {"measurement": "remaining at 0.5 h", "setting": "[3]", "result": 83, "unit": "%"},
      {"measurement": "remaining at 2 h", "setting": "[4]", "result": 96, "unit": "%"},
      {"measurement": "remaining at 0.5 h", "setting": "[5]", "result": 93, "unit": "%"},
      {"measurement": "remaining at 2 h", "setting": "[6]", "result": 8, "unit": "%"},
      {"measurement": "remaining at 0.5 h", "setting": "[7]", "result": 81, "unit": "%"},
      {"measurement": "remaining at 2 h", "setting": "[8]", "result": 41, "unit": "%"},
      {"measurement": "concentration at 0.5 h", "setting": "mouse, plasma, 50 mg/kg, PLASMA, 30 min, read-out: concentration of prodrug in plasma", "result": 115, "unit": "µM"},
      {"measurement": "remaining at 0.5 h", "setting": "[9]", "result": 98, "unit": "%"},
      {"measurement": "concentration at 2 h", "setting": "[10]", "result": 9.4, "unit": "µM"},
      {"measurement": "remaining at 2 h", "setting": "mouse, plasma, 50 mg/kg, PLASMA, 120 min, read-out: stability: percentage of material observed as intact prodrug, plasma", "result": 95, "unit": "%"},
      {"measurement": "remaining at 0.5 h", "setting": "[11]", "result": 40, "unit": "%"},
      {"measurement": "remaining at 2 h", "setting": "[12]", "result": 2, "unit": "%"},
      {"measurement": "remaining at 0.5 h", "setting": "[13]", "result": 85, "unit": "%"},
      {"measurement": "remaining at 2 h", "setting": "[14]", "result": 81, "unit": "%"},
      {"measurement": "remaining at 0.5 h", "setting": "mouse, tumor, 50 mg/kg, TUMOR, 30 min, read-out: stability: percentage of material observed as intact prodrug, tumor", "result": 95, "unit": "%"},
      {"measurement": "remaining at 2 h", "setting": "mouse, tumor, 50 mg/kg, TUMOR, 120 min, read-out: stability: percentage of material observed as intact prodrug, tumor", "result": 88, "unit": "%"}
    ]}
  ]
}
